Target: T1, murine SR-BI (Mus musculus, UniProt Q61009)
T1 construct: expressed in transfected cells; host or cells: ldlA-7 (LDL receptor deficient Chinese hamster ovary cells)
T1 sequence (Q61009 1-509): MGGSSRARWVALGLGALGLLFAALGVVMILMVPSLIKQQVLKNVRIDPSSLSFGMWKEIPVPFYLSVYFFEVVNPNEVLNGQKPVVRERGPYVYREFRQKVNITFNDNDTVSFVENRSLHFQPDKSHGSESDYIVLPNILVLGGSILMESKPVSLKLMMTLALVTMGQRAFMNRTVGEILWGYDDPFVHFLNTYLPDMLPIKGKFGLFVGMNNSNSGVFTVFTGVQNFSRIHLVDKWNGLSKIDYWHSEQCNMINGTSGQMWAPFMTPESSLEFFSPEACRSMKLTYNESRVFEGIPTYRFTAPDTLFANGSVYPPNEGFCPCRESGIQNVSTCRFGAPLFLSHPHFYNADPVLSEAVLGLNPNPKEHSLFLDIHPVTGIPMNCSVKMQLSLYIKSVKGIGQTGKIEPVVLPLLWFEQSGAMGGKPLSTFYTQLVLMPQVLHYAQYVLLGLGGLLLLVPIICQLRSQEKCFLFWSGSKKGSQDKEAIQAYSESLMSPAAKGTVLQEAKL
Assay: Uptake of DiI from DiI-HDL by ldlA[mSR-BI] cells (high throughput screen and concentration dependence)
Format: cell-based

[1] = DiI uptake from DiI-HDL, compounds at nominal 10 micromolar, ldlA[mSR-BI] cells

Row | Compound | ENDOHDL Test 1 | ENDOHDL Test 2 | ENDOHDL Test 1 [1] | ENDOHDL Test 2 [1]
1 | Cc1c([N+](=O)[O-])cc(C(=O)Nc2cccc(-c3nc4ccccc4o3)c2)cc1[N+](=O)[O-] [MIT 9952-210] | 0.59 | 0.56 | – | –
2 | Cn1cc(C=O)c2cc(Br)ccc21 [MIT 9952-193] | 0.66 | 0.69 | – | –
3 | C=CCc1c(C)nc(-c2ccccc2)nc1Nc1ccc([N+](=O)[O-])cc1 [MIT 9952-227] | 0.58 | 0.53 | – | –
4 | Cc1nc(Cl)c(C(c2cc([N+](=O)[O-])ccc2Cl)c2c(Cl)nc(C)nc2Cl)c(Cl)n1 [MIT 9952-22] | 1.27 | 1.4 | – | –
5 | O=C(Cl)c1ccccc1NS(=O)(=O)/C=C/c1ccccc1 [MIT 9952-4] | 1.17 | 1.33 | – | –
6 | O=C(Cc1ccccc1)N/N=C/c1cccn1-c1ccc([N+](=O)[O-])cc1 [MIT 9952-123] | 0.59 | 0.64 | – | –
7 | Nc1nc(-c2ccccc2)nc2sc3c(c12)CCCC3 [MIT 9952-15] | 0.55 | 0.61 | – | –
8 | CCS(=O)(=O)C(=C(Nc1ccc(OC)cc1)Nc1ccc(OC)cc1)S(=O)(=O)CC [MIT 9952-57] | 1.13 | 1.25 | – | –
9 | O=C(O)c1cc(C(=O)O)nc(C(=O)O)c1 [MIT 9952-60] | 1.13 | 1.17 | – | –
10 | Cc1nc(O)c(C(c2cc([N+](=O)[O-])ccc2O)c2c(O)nc(C)nc2O)c(O)n1 [MIT 9952-82] | 1.27 | 1.4 | – | –
11 | Clc1ccc(-c2nc3ccc4ccccc4c3c3c2CCCC3)cc1 [MIT 9952-156] | 0.57 | 0.62 | – | –
12 | O=C(Nc1ccc(C2Nc3ccc(SC(=O)c4ccc(Cl)cc4)c(Cl)c3S2)cc1)c1ccc(Cl)cc1 (stereo not shown) [MIT 9952-35] | 0.56 | 0.56 | – | –
13 | O=C(Cl)c1ccc2c(c1)C(=O)N(c1ccc(-c3ccnc(-c4ccc(N5C(=O)c6ccc(C(=O)Cl)cc6C5=O)cc4)n3)cc1)C2=O [MIT 9952-42] | 1.27 | 1.21 | – | –
14 | O=C(Nc1ccc(NC(=O)c2cccc([N+](=O)[O-])c2)c(Cl)c1)c1cccc([N+](=O)[O-])c1 [MIT 9952-162] | 0.55 | 0.4 | – | –
15 | Nc1nc(N)nc(-c2cccc(-c3nc(N)nc(N)n3)c2)n1 [MIT 9952-173] | 1.96 | 1.61 | – | –
16 | NS(=O)(=O)c1ccc(N=N/C(=N/Nc2ccc(S(N)(=O)=O)cc2)c2ccccc2)cc1 [MIT 9952-204] | 0.55 | 0.62 | – | –
17 | CO/C(=N\C(NC(=S)Nc1ccc(Br)cc1)C(Cl)(Cl)Cl)c1ccc(C)cc1 (stereo not shown) [MIT 9952-198] | 0.67 | 0.64 | – | –
18 | COc1ccc(COCC(Cl)CN2CCCCC2)cc1OC.Cl (stereo not shown) [MIT 9952-40] | 1.28 | 1.23 | – | –
19 | Br.Oc1c(Br)cccc1CN(Cc1cc(Br)cc(Br)c1O)C1CCCCC1 [MIT 9952-316] | – | – | 0.71 | 0.72
20 | CC(C)C(=O)NC(NC(=S)Nc1cccc(C(=O)Cl)c1)C(Cl)(Cl)Cl (stereo not shown) [MIT 9952-117] | 1.26 | 1.58 | – | –
21 | CN(C)c1ccc(C(Cl)(c2ccc(N(C)C)cc2)C2CN3CCC2CC3)cc1.Cl (stereo not shown) [MIT 9952-137] | 1.32 | 1.25 | – | –

Row | Compound | ENDOHDL Test 1 | ENDOHDL Test 2 | ENDOHDL Test 1 [1] | ENDOHDL Test 2 [1]
22 | Clc1ccc(/N=C/c2ccc3c(c2)OCO3)nc1 [MIT 9952-176] | 1.36 | 1.17 | – | –
23 | O=C(O/N=C/c1ccc([N+](=O)[O-])o1)c1ccccc1 [MIT 9952-195] | 1.22 | 1.35 | – | –
24 | O=C(NC(NC(=S)Nc1cc(C(F)(F)F)ccc1Cl)C(Cl)(Cl)Cl)c1ccco1 (stereo not shown) [MIT 9952-90] | 0.62 | 0.61 | – | –
25 | O=C(Nc1ccc(Cl)cc1C(=O)c1ccc(Cl)cc1)c1cc(Cl)ccc1NS(=O)(=O)c1ccc(Cl)cc1 [MIT 9952-45] | 0.44 | 0.46 | – | –
26 | O=C1CC(N2CCOCC2)C(=O)N1c1ccc(Br)cc1 (stereo not shown) [MIT 9952-17] | 1.32 | 1.17 | – | –
27 | CCN(CC(O)COc1ccccc1C(C)=O)S(=O)(=O)O.[Na+] (stereo not shown) [MIT 9952-62] | 1.28 | 1.24 | – | –
28 | NC(=S)Nc1ccc2c(c1)Nc1ccccc1CC2 [MIT 9952-175] | 0.42 | 0.51 | – | –
29 | COc1ccc(NC(=O)c2cc([N+](=O)[O-])c(C)c([N+](=O)[O-])c2)cc1Cl [MIT 9952-226] | 0.5 | 0.56 | – | –
30 | Cc1cc(=O)oc2cc(OCc3ccccc3)c(OCc3ccccc3)cc12 [MIT 9952-218] | 0.64 | 0.33 | – | –
31 | CC(C)(C)c1ccc(C(=O)Nc2ccccc2C(=O)Cl)cc1 [MIT 9952-47] | 1.18 | 1.37 | – | –
32 | CCOC(=O)c1c(C)n(-c2ccccc2)c2ccc(NS(=O)(=O)c3ccccc3)cc12 [MIT 9952-71] | 0.62 | 0.55 | – | –
33 | CC[n+]1c(/C=C/SC)ccc2ccccc21 [MIT 9952-260] | 0.56 | 0.58 | – | –
34 | Cc1ccsc1/C=N/NC(=O)c1cccc([N+](=O)[O-])c1 [MIT 9952-228] | 0.46 | 0.63 | – | –
35 | Cl.NCCc1nc2ccccc2[nH]1 [MIT 9952-25] | 1.21 | 1.69 | – | –
36 | O=C1Nc2ccc([N+](=O)[O-])cc2/C1=N/NC(=O)C1C2CCCCC21 (stereo not shown) [MIT 9952-184] | 0.6 | 0.58 | – | –
37 | CN(C)CC(=O)Nc1ccc2c(c1)Nc1ccccc1CC2.Cl [MIT 9952-152] | 0.51 | 0.43 | – | –
38 | O=C(Cl)c1ccccc1NS(=O)(=O)/C=C/c1ccccc1 [MIT 9952-110] | 1.17 | 1.33 | – | –
39 | O=C(CSC1=NCCN1)Nc1ccccc1 [MIT 9952-67] | 0.55 | 0.54 | – | –
40 | CCCCN1CCC(Cl)(c2ccccc2)C(C(=O)c2ccccc2)C1 (stereo not shown) [MIT 9952-26] | 1.28 | 1.32 | – | –
41 | O=C(NC(NC(=S)Nc1cccc2ccccc12)C(Cl)(Cl)Cl)c1cccc([N+](=O)[O-])c1 (stereo not shown) [MIT 9952-102] | 0.56 | 0.49 | – | –

Results, then the compound that gave them:

Row | ENDOHDL Test 1 | ENDOHDL Test 2 | ENDOHDL Test 1 [1] | ENDOHDL Test 2 [1] | Compound
42 | 0.59 | 0.55 | – | – | COc1ccc(C(=O)Nc2cccc(C(F)(F)F)c2)cc1OC [MIT 9952-259]
43 | 1.28 | 1.24 | – | – | CCN(CC(O)COc1ccccc1C(C)=O)S(=O)(=O)[O-].[Na+] (stereo not shown) [MIT 9952-250]
44 | – | – | 0.56 | 0.59 | C/C(CCS(=O)(=O)c1ccc(C)cc1)=N\NC(N)=S [MIT 9952-333]
45 | 0.61 | 0.6 | – | – | COc1ccc([N+](=O)[O-])cc1NC(=O)c1ccccc1 [MIT 9952-238]
46 | – | – | 0.54 | 0.83 | CCOc1ccc2nc3cc(/N=N/c4ccc(N)nc4N)ccc3c(N)c2c1 [MIT 9952-320]
47 | – | – | 0.63 | 0.35 | CC(C)(C)c1ccc(C(=O)Nc2cccc(NC(=O)c3cccc([N+](=O)[O-])c3)c2)cc1 [MIT 9952-331]
48 | – | – | 0.54 | 0.58 | O=C(NC(NC(=S)Nc1ccc2ccccc2c1)C(Cl)(Cl)Cl)c1cccc([N+](=O)[O-])c1 (stereo not shown) [MIT 9952-336]
49 | 0.46 | 0.54 | – | – | O=C(Nc1cc(Sc2nc3ccccc3s2)cc([N+](=O)[O-])c1)c1ccc(F)c(F)c1 [MIT 9952-231]
50 | – | – | 0.52 | 0.56 | O=C(/C=C/c1cccc([N+](=O)[O-])c1)Nc1cccc(C(F)(F)F)c1 [MIT 9952-290]
51 | – | – | 0.59 | 0.56 | CCn1c2ccccc2c2cc(/C=N/NC(N)=S)ccc21 [MIT 9952-330]
52 | 0.71 | 0.67 | – | – | CCOC1=C(C(C)=O)NC(c2ccc(OC)cc2)C(=S)N1 (stereo not shown) [MIT 9952-278]
53 | 0.59 | 0.65 | – | – | COc1ccc(C(=O)Nc2ccc(I)cc2)cc1OC [MIT 9952-253]
54 | 0.62 | 0.66 | – | – | Brc1ccc(-c2cc(-c3ccccc3)nc(N3CCOCC3)n2)cc1 [MIT 9952-261]
55 | – | – | 0.6 | 0.57 | O=C(Nc1cccc(NC(=O)c2ccccc2Cl)c1)c1cccc([N+](=O)[O-])c1 [MIT 9952-337]
56 | – | – | 0.69 | 0.67 | Cc1ccc(NC(=S)NC(NC(=O)c2ccccc2Cl)C(Cl)(Cl)Cl)cc1 (stereo not shown) [MIT 9952-332]
57 | – | – | 1.29 | 1.24 | O=C(/C=C/C=C(Cl)Cl)c1ccc2c(c1)OCO2 [MIT 9952-298]
58 | 0.63 | 0.64 | – | – | CCCCCOc1ccc(-c2ccc(C(=O)NC(NCc3ccccc3)C(Cl)(Cl)Cl)cc2)cc1 (stereo not shown) [MIT 9952-247]
59 | – | – | 0.35 | 0.44 | [O-][n+]1onc2c3cc(-c4ccccc4)[nH]c3ccc21 [MIT 9952-304]
